Data published in US20110105515A1, “TARGETING THE ONCOPROTEIN NUCLEOPHOSMIN” (President and Fellows of Harvard College, priority 2007, published 2011).
Read-outs that look alike come from different tables or passages of the source.

Assays:
SK-OV-3 = test: cells; conditions: Homo sapiens, SK-OV-3, 48 h; for CC50: read-out: LC50
UACC-257 = test: cells; conditions: Homo sapiens, UACC-257, 48 h; for CC50: read-out: LC50
MCF7 = test: cells; conditions: Homo sapiens, MCF7, 48 h; for CC50: read-out: LC50
SN12C = test: cells; conditions: Homo sapiens, 48 h; for CC50: read-out: LC50
SF-295 = test: cells; conditions: Homo sapiens, SF-295, 48 h; for CC50: read-out: LC50
SNB-19 = test: cells; conditions: Homo sapiens, SNB-19, 48 h; for CC50: read-out: LC50
SR = test: cells; conditions: Homo sapiens, 48 h
HCT-116 = test: cells; conditions: Homo sapiens, HCT-116, 48 h; for CC50: read-out: LC50
SF-539 = test: cells; conditions: Homo sapiens, SF-539, 48 h; for CC50: read-out: LC50
OVCAR-8 = test: cells; conditions: Homo sapiens, OVCAR-8, 48 h; for CC50: read-out: LC50
UO-31 = test: cells; conditions: Homo sapiens, UO-31, 48 h; for CC50: read-out: LC50
HL-60(TB) = test: cells; conditions: Homo sapiens, HL-60, 48 h; for CC50: read-out: LC50
T-47D = test: cells; conditions: Homo sapiens, T47D, 48 h
SW-620 = test: cells; conditions: Homo sapiens, SW-620, 48 h; for CC50: read-out: LC50
A498 = test: cells; conditions: Homo sapiens, A498, 48 h; for CC50: read-out: LC50
HS578T = test: cells; conditions: Homo sapiens, Hs-578T, 48 h
LOX IMVI = test: cells; conditions: Homo sapiens, 48 h; for CC50: read-out: LC50
A549/ATCC = test: cells; conditions: Homo sapiens, A549, 48 h; for CC50: read-out: LC50
SF-268 = test: cells; conditions: Homo sapiens, SF-268, 48 h; for CC50: read-out: LC50
NCI-H23 = test: cells; conditions: Homo sapiens, NCI-H23, 48 h; for CC50: read-out: LC50
K-562 = test: cells; conditions: Homo sapiens, K562, 48 h; for CC50: read-out: LC50
KM12 = test: cells; conditions: Homo sapiens, KM12, 48 h; for CC50: read-out: LC50
UACC62 = test: cells; conditions: Homo sapiens, UACC-62, 48 h; for CC50: read-out: LC50
OVCAR-3 = test: cells; conditions: Homo sapiens, OVCAR-3, 48 h; for CC50: read-out: LC50
MOLT-4 = test: cells; conditions: Homo sapiens, MOLT-4, 48 h; for CC50: read-out: LC50
OVCAR-4 = test: cells; conditions: Homo sapiens, OVCAR-4, 48 h
ACHN = test: cells; conditions: Homo sapiens, 48 h; for CC50: read-out: LC50
EKVX = test: cells; conditions: Homo sapiens, 48 h; for CC50: read-out: LC50
HCT-15 = test: cells; conditions: Homo sapiens, HCT-15, 48 h; for CC50: read-out: LC50
NCI/ADR-RES = test: cells; conditions: Homo sapiens, 48 h; for CC50: read-out: LC50
NCI-H522 = test: cells; conditions: Homo sapiens, NCI-H522, 48 h; for CC50: read-out: LC50
SK-MEL-28 = test: cells; conditions: Homo sapiens, SK-MEL-28, 48 h; for CC50: read-out: LC50
COLO 205 = test: cells; conditions: Homo sapiens, COLO 205, 48 h; for CC50: read-out: LC50
MDA-MB-231/ATCC = test: cells; conditions: Homo sapiens, MDA-MB-231, 48 h; for CC50: read-out: LC50
HOP-92 = test: NCI 60 cell lines, SRB assay: HOP-92; conditions: for CC50: read-out: LC50
[1] = HOP-92 (Non-Small Cell Lung Cancer), 48 hours, SRB

## Cc1cc(C)cc(-c2ccc3c(c2)[N+]([O-])=C2C3=C[C@@]34NC(=O)C5(CCCN5C3=O)CC4C2(C)C)c1 (some centres unmarked) [Biphenyl Analogue]
SK-OV-3
  GI50: 300 nM
  CC50: 3450 nM
UACC-257
  GI50: 272 nM
  CC50: 3740 nM
MCF7
  GI50: 212 nM
  CC50: 5510 nM
SN12C
  GI50: 214 nM
  CC50: 2520 nM
SF-295
  GI50: 392 nM
  CC50: 3970 nM
SNB-19
  GI50: 238 nM
  CC50: 3090 nM
SR
  GI50: 118 nM
HCT-116
  GI50: 186 nM
  CC50: 764 nM
SF-539
  GI50: 186 nM
  CC50: 1170 nM
OVCAR-8
  GI50: 277 nM
  CC50: 3300 nM
UO-31
  GI50: 190 nM
  CC50: 2760 nM
HL-60(TB)
  GI50: 131 nM
  CC50: 64300 nM
T-47D
  GI50: 57.6 nM
SW-620
  GI50: 151 nM
  CC50: 806 nM
A498
  GI50: 285 nM
  CC50: 3830 nM
HS578T
  GI50: 546 nM
HS578T; read-out: LC50
  CC50: > 100000 nM
LOX IMVI
  GI50: 139 nM
  CC50: 534 nM
A549/ATCC
  GI50: 279 nM
  CC50: 3000 nM
SF-268
  GI50: 236 nM
  CC50: 3320 nM
NCI-H23
  GI50: 206 nM
  CC50: 3580 nM
K-562
  GI50: 124 nM
  CC50: > 100000 nM
KM12
  GI50: 257 nM
  CC50: 3910 nM
UACC62
  GI50: 161 nM
  CC50: 1850 nM
OVCAR-3
  GI50: 158 nM
  CC50: 986 nM
MOLT-4
  GI50: 159 nM
  CC50: 79100 nM
OVCAR-4
  GI50: 237 nM
ACHN
  GI50: 214 nM
  CC50: 2260 nM
EKVX
  GI50: 296 nM
  CC50: 3470 nM
HCT-15
  GI50: 146 nM
  CC50: 710 nM
NCI/ADR-RES
  GI50: 992 nM
  CC50: 5180 nM
NCI-H522
  GI50: 66.2 nM
  CC50: 1160 nM
SK-MEL-28
  GI50: 252 nM
  CC50: 3770 nM
COLO 205
  GI50: 128 nM
  CC50: 526 nM
MDA-MB-231/ATCC
  GI50: 240 nM
  CC50: 3760 nM

## CN(C)c1cccc2c(S(=O)(=O)NCCCCCCCCCCOc3ccc4c(c3)[N+]([O-])=C3C4=C[C@@]45NC(=O)C6(CCCN6C4=O)CC5C3(C)C)cccc12 (some centres unmarked) [Dansyl Analogue]
HOP-92; [1]
  GI50: 224 nM
  TGI: 867 nM
  CC50: 12700 nM

## [2H]On1c2c(c3ccc4c(c31)C=CC(C)(C)O4)C(OC([2H])([2H])[2H])[C@@]13NC(=O)C4(CCCN4C1=O)CC3C2(C)C (some centres unmarked) [Deuterated Methanol Adduct]
SK-OV-3
  GI50: 1010 nM
  CC50: 4650 nM
UACC-257
  GI50: 587 nM
  CC50: 4450 nM
MCF7
  GI50: 348 nM
  CC50: 4560 nM
SN12C
  GI50: 1120 nM
  CC50: 4820 nM
SF-295
  GI50: 1280 nM
  CC50: 5810 nM
SNB-19
  GI50: 1110 nM
  CC50: 4810 nM
SR
  GI50: 235 nM
SR; read-out: LC50
  CC50: 9370 nM
HCT-116
  GI50: 744 nM
  CC50: 4440 nM
SF-539
  GI50: 431 nM
  CC50: 3830 nM
OVCAR-8
  GI50: 960 nM
  CC50: 4770 nM
UO-31
  GI50: 498 nM
  CC50: 4290 nM
HL-60(TB)
  GI50: 298 nM
  CC50: 9370 nM
T-47D
  GI50: 142 nM
SW-620
  GI50: 375 nM
  CC50: 4900 nM
HOP-92; [1]
  TGI: 1300 nM
HOP-92; Homo sapiens, HOP-92, 48 h
  GI50: 222 nM
  CC50: 4620 nM
A498
  GI50: 1020 nM
  CC50: 4820 nM
HS578T
  GI50: 492 nM
LOX IMVI
  GI50: 969 nM
  CC50: 4630 nM
A549/ATCC
  GI50: 1560 nM
  CC50: 5730 nM
SF-268
  GI50: 1500 nM
  CC50: 6060 nM
NCI-H23
  GI50: 995 nM
  CC50: 5900 nM
K-562
  GI50: 576 nM
  CC50: > 100000 nM
KM12
  GI50: 1270 nM
  CC50: 5020 nM
UACC62
  GI50: 549 nM
  CC50: 4390 nM
OVCAR-3
  GI50: 616 nM
  CC50: 4270 nM
MOLT-4
  GI50: 229 nM
  CC50: 8560 nM
OVCAR-4
  GI50: 373 nM
OVCAR-4; read-out: LC50
  CC50: 4140 nM
ACHN
  GI50: 1270 nM
  CC50: 5030 nM
EKVX
  GI50: 594 nM
  CC50: 4640 nM
HCT-15
  GI50: 548 nM
  CC50: 4230 nM
NCI/ADR-RES
  GI50: 2610 nM
  CC50: 39400 nM
NCI-H522
  GI50: 431 nM
  CC50: 4820 nM
SK-MEL-28
  GI50: 457 nM
  CC50: 4370 nM
COLO 205
  GI50: 336 nM
  CC50: 4450 nM
MDA-MB-231/ATCC
  GI50: 538 nM
  CC50: 4320 nM
